Where two headings read alike, the source gives them in different places.
Assays:
[1] = tested on: cytotoxic T lymphocytes, P815 target cells; assay: Cytotoxic T lymphocytes (CTL) assay; type: cell-based, C57B1/6 mice and DBA/2 mice; conditions: for activation at 10 µM / activation at 0.1 µM / activation at 0.001 µM: Mus musculus, P815, 120 h, read-out: CTL activity, % increase compared to IL2 (100%); for activation at 10 µM: at 10^-5 M; for activation at 0.001 µM: at 10^-9 M
Description: (§1) Mixed lymphocyte reaction is an in vitro counterpart of the allograft rejection. Briefly, T cell response was obtained when cells taken from two inbred strains from two outbred individuals of any species were mixed in vitro in culture.
(§2) After 4 days incubation, ^3 H thymidine uptake and cytotoxicity assay (CTL) were performed.
(§3) 3 C57B1/6 mice and 3 DBA/2 mice wre killed and lymphocytes prepared using lympholyte M. The cell concentration was adjusted to 10×10^6 cell/ml for each lysis. DBA/2 cells were irradiated with 3000 Rads. 1 ml of the C57 cells+1 ml of the DBA/2 cells+1 ml of the drug at 3 different concentrations were incubated together for 5 days. Positive control was IL-2 at 15 ng/ml final. After 5 days, the CTL and MLR tests were carried out.
P815 target cells were labelled with Cr^51. After labelling, the cells were resuspended to 5×10^4 cells/ml.
100 μl of target cells+100 μl Of T cells were incubated for 4 hrs and then 100 μl of supernatant was counted using a gamma counter.

[2] = tested on: T cell response (mixed lymphocyte reaction); assay: Mixed lymphocyte reaction (MLR) assay; type: cell-based, C57B1/6 mice and DBA/2 mice
Description: as §1, §2, §3
The cells were resuspended and 100 μl of cell suspension were deposited in each of the 96 wells in the plate, 50 μl of Thymidine at 20 μCi/ml was added for 6 hrs. The cells were then collected and counted using a beta counter.

[3] = tested on: B cell activity (LPS), spleen mononuclear leukocytes; assay: Mitogenic proliferation on spleen cell suspension, B (LPS); type: cell-based, C57BL-6 mice
Description: (§4) Mitogenic lectin (mitogen) is a protein which binds and cross-links specific cells surface carbohydrate determinants, and will polyclonally stimulate lymphoid cells. Lymphocyte activation by either antigens or mitogens results in intracellular changes and the subsequent development into a lymphoblast. Mitogenic stimulation of lymphocytes in vitro is believed to mimic the series of events which occur in vivo following their stimulation by specific antigens. PHA, ConA, and PWM, LPS mitogens can be used as a measurement of T cell and B cell activity, respectively.
(§5) Briefly, spleen mononuclear leukocytes from C57BL-6 mice were incubated in the presence or absence of mitogens with or without tested drugs. After 72 hours or 5 days, ^3 H thymidine incorporation was recorded as an indication of cell transformation and proliferation.
(§6) 100 μl of a suspension of 2×10^6 cells/ml (2×10^5 cells/well) were incubated in presence of PHA or ConA or PWM or LPS at the following concentrations:
(§7) PHA=0.01% final concentration-0.001%
(§8) Cells were incubated in presence or absence of drugs for 72 hours. 0.5 or 1 μCi of tritiated thymidine (^3 H) was added per well the last 18 or 6 hours of incubation respectively. Cells were harvested and counted on a Beta counter.

[4] = tested on: T cell activity (ConA), spleen mononuclear leukocytes; assay: Mitogenic proliferation on spleen cell suspension, T (ConA); type: cell-based, C57BL-6 mice
Description: as §4, §5, §6, §7, §8

immune system = conditions: prior art; cited from earlier work
[5] = prior art; cited from earlier work
[6] = at 10^-12 - 10^-6 (M), 4320 min

**Q.** What does the source list for `CN(C)c1ncnc2c1ncn2CCCCCOC(=O)N[C@@H](CCCNC(=N)N)C(=O)O` [Compound #2, N,N-Dimethylaminopurinyl Pentoxycarbonyl L-Arginine]?
**A.** CTL activity, % increase compared to IL2 (100%) ([1]; concentration not given): 0 (less than 20%); MLR ([2]; at 10^-7 - 10^-5 M): 1.5 - 2 ×; B (LPS) mitogenic proliferation ([3]; concentration not given): 0; T (ConA) mitogenic proliferation ([4]; at 10^-8 - 10^-5 (M), 4320 min): 2 - 4 ×

**Q.** Which results are given for `CNc1ncnc2c1ncn2CCCCCOC(=O)N[C@H](CCCNC(=N)N)C(=O)O` [Compound #3, N-Monomethylaminopurinyl Pentoxycarbonyl D-Arginine]?
**A.** activation at 10 µM [1]: 20 to 40%; MLR ([2]; at 10^-9 - 10^-5 M): 1.5 ×; B (LPS) mitogenic proliferation ([3]; at 10^-8 - 10^-6 (M), 4320 min): 2 - 2.5 ×; T (ConA) mitogenic proliferation [4, 6]: 2 - 6 ×

**Q.** Which results are given for `CNc1ncnc2c1ncn2CCCCCO` [Compound #3a, N-(6-N-Methyl-Aminopurin-9-yl)-pentanol]?
**A.** CTL activity, % increase compared to IL2 (100%) ([1]; at 10^-9 - 10^-7 M): +++ (60-80%); MLR ([2]; at 10^-9 - 10^-5 M): 1.5 - 2.9 ×

**Q.** With `N=C(N)NCCC[C@@H](NC(=O)OCCCCCn1cnc2c(N)ncnc21)C(=O)O` [Compound #5, Aminopurinyl Pentoxycarbonyl D-Arginine] as the molecule, how does the activation at 0.1 µM ([1]; at 10^-7 M) read?
**A.** The activation at 0.1 µM was 20 to 40%.

**Q.** And the MLR ([2]; at 10^-7 - 10^-5 M)?
**A.** Its MLR is 1.5 - 2 ×.

**Q.** Which “CTL activity, % increase compared to IL2 (100%)” value ([1]; at 10^-7 - 10^-5 M) does the source give for `Nc1ncnc2c1ncn2CCCCCO` [Compound #5a, N-(6-Aminopurin-9-Yl) 5-Pentanol] here?
**A.** Its value is “++ (40-60%)”.

**Q.** And the MLR ([2]; at 10^-9 - 10^-6 M, 7200 min)?
**A.** Its MLR is 1.5 - 2 ×.

**Q.** What does the source list for `N=C(N)NCCC[C@H](NC(=O)OCCCCCn1cnc2c(N)ncnc21)C(=O)O` [Compound #6, Aminopurinyl Pentoxycarbonyl L-Arginine]?
**A.** activation at 0.001 µM [1]: 60 to 80%; MLR ([2]; at 10^-9 - 10^-5 M): 1.5 - 3 ×

**Q.** With `N=C(N)NCCC[C@@H](NC(=O)OCCCCCn1cnc2c(NN)ncnc21)C(=O)O` [Compound #7, Hydrazinopurinyl Pentoxycarbonyl D-Arginine] as the molecule, how does the activation at 0.001 µM [1] read?
**A.** The activation at 0.001 µM was 60 to 80%.

**Q.** What about the MLR ([2]; at 10^-9 - 10^-6 M, 7200 min) of the same molecule?
**A.** The MLR was 1.5 - 2 ×.

**Q.** And the “B (LPS) mitogenic proliferation” value ([3]; concentration not given)?
**A.** The value was 0.

**Q.** And the “T (ConA) mitogenic proliferation” value ([4]; at 10^-12 - 10^-8 (M), 4320 min)?
**A.** Its value is 2 - 6 ×.

**Q.** What does the source list for `NNc1ncnc2c1ncn2CCCCCO` [Compound #7a, N-(6-Hydrazinopurin-9-yl) 5-Pentanol]?
**A.** activation at 0.001 µM ([1]; preliminary result): > 80%; MLR ([2]; at 10^-9 - 10^-5 M, preliminary result): 2 ×

**Q.** With `N=C(N)NCCC[C@H](NC(=O)OCCCCCn1cnc2c(NN)ncnc21)C(=O)O` [Compound #8, Hydrazinopurinyl Pentoxycarbonyl L-Arginine] as the molecule, how does the activation at 0.001 µM [1] read?
**A.** Its activation at 0.001 µM is greater than 80%.

**Q.** And the MLR ([2]; at 10^-9 - 10^-5 M)?
**A.** The MLR was 1.5 - 2 ×.

**Q.** Which “T (ConA) mitogenic proliferation” value [4, 6] does the source give for `N=C(N)NCCC[C@@H](NC(=O)OCCCCCn1cnc2c(Cl)ncnc21)C(=O)O` [Compound #9, Chloropurinyl Pentoxycarbonyl D-Arginine] here?
**A.** Its value is 2 - 3.5 ×.

**Q.** For `N=C(N)NCCC[C@@H](NC(=O)OCCCCCn1cnc2c(=O)[nH]cnc21)C(=O)O` [Compound #11, Hydroxypurinyl Pentoxycarbonyl D-Arginine], which activation at 0.1 µM ([1]; at 10^-7 M) is on record?
**A.** The activation at 0.1 µM was 40 to 60%.

**Q.** What about the MLR ([2]; at 10^-7 - 10^-5 M) of the same molecule?
**A.** Its MLR is 2 - 2.5 ×.

**Q.** Which activation at 0.1 µM ([1]; at 10^-7 M, preliminary result) does the source give for `OCCCCCn1cnc2cncnc21` [Compound #19, N-9-purinyl-5-pentanol] here?
**A.** Its activation at 0.1 µM is 40 to 60%.

**Q.** What about the MLR ([2]; concentration not given, preliminary result) of the same molecule?
**A.** Its MLR is 0.

**Q.** Which activation at 10 µM [1] does the source give for `N=C(N)NCCC[C@@H](NC(=O)OCCCCCn1cnc2cncnc21)C(=O)O` [Compound #20, N-9-purinyl-7-pentyloxycarbonyl-D-arginine] here?
**A.** The activation at 10 µM was 40 to 60%.

**Q.** Which activation at 0.1 µM ([1]; at 10^-7 M) does the source give for `COc1ncnc2c1ncn2CCCCCO` [Compound #51, N-(6-methoxypurin-9-yl) 5-pentanol] here?
**A.** The activation at 0.1 µM was 40 to 60%.

**Q.** What about the MLR ([2]; at 10^-9 - 10^-6 M, 7200 min) of the same molecule?
**A.** The MLR was 1.5 - 2 ×.

**Q.** Which activation at 0.001 µM [1] does the source give for `OCCCCCn1cnc2c(S)ncnc21` [Compound #59, N-(6-Mercaptopurin-9-yl)-pentanol] here?
**A.** The activation at 0.001 µM was 40 to 60%.

**Q.** And the MLR ([2]; at 10^-9 - 10^-5 M)?
**A.** Its MLR is 2 - 2.4 ×.

**Q.** For `CSc1ncnc2c1ncn2CCCCCO` [Compound #60, N-(6,-N-Methylthiopurin-9-yl)-pentanol], which activation at 0.1 µM ([1]; at 10^-7 M) is on record?
**A.** The activation at 0.1 µM was 20 to 40%.

**Q.** And the MLR ([2]; at 10^-9 - 10^-5 M)?
**A.** Its MLR is 1.7 - 2 ×.

**Q.** For `OCCCCCn1cnc2c(Cl)ncnc21` [Compound #III, N-(6-Chloropurin-9-yl)-5-pentanol], which activation at 0.1 µM ([1]; at 10^-7 M) is on record?
**A.** The activation at 0.1 µM was 60 to 80%.

**Q.** And the MLR ([2]; at 10^-9 - 10^-5 M)?
**A.** Its MLR is 1.5 - 2.5 ×.

**Q.** With `CN(C)c1ncnc2c1ncn2CCCCCO` [Compound #V, N-(6-N,N-Dimethylaminopurin-9-yl)-pentanol] as the molecule, how does the activation at 0.1 µM ([1]; at 10^-7 M) read?
**A.** Its activation at 0.1 µM is 60 to 80%.

**Q.** What about the MLR ([2]; at 10^7 - 10^5 M (so in the source)) of the same molecule?
**A.** The MLR was 1.5 - 2 ×.

**Q.** For `O=c1[nH]cnc2c1cnn2CCCCCO` [ST 689, allopurinol pentanol, reference compound], which immunomodulating activity (immune system) is on record?
**A.** Its immunomodulating activity is “not significantly more immunostimulatory than ST 789”.

**Q.** And the “CTL activity, % increase compared to IL2 (100%)” value ([1]; at 10^-7 M, preliminary result)?
**A.** Its value is “++++ (80+)”.

**Q.** What about the MLR ([2]; at 10^-5 M, preliminary result, 10 µM) of the same molecule?
**A.** Its MLR is 1.6 ×.

**Q.** What does the source list for `N=C(N)NCCC[C@H](NC(=O)OCCCCCn1cnc2c(=O)[nH]cnc21)C(=O)O` [ST 789, reference compound]?
**A.** stimulation of cytotoxic T lymphocytes (CD8+ T cells) (immune system): no indication; activation at 0.1 µM ([1]; at 10^-7 M): 40 to 60%; MLR ([2]; at 10^-9 - 10^-5 M): 2 - 3 ×; B (LPS) mitogenic proliferation ([3]; at 10^-8 - 10^-5 (M), 4320 min): 1.5 - 3 ×; T (ConA) mitogenic proliferation ([4]; concentration not given): 0

**Q.** For `Oc1ncnc2[nH]ncc12` [allopurinol], which immunomodulating activity (immune system) is on record?
**A.** The immunomodulating activity was “immunosuppressive”.

**Q.** With isoprinosine as the molecule, how does the immunomodulating activity (immune system) read?
**A.** The immunomodulating activity was “not an effective immunomodulator”.

**Q.** And the toxicity [5]?
**A.** Its toxicity is “very nontoxic”.
